The values below come from patent US10799442B2, “Compounds useful in the treatment and/or care of the skin, hair, nails, and/or mucous membranes” (LUBRIZOL ADVANCED MATERIALS, INC., priority 2015, dated 2020).

The subject of one data set is p63. Nature of the data set: Activation of the pool of epidermal stem cell in reconstructed human epidermal tissue (RHE), p63 immunohistochemistry. The format is cell-based. The settings on record: p63 immunofluorescence, 10 μg/ml, 24 hours. On the procedure:
Therefore, an increase in the expression of p63 would mean a higher regenerative potential compared to basal conditions.
The SkinEthic human tissue models (RHE) are removed from the agarose-nutrient solution in the multiwell plate immediately after arrival and are placed in a 6-well plate in which each well has previously be filled with SkinEthic Growth Medium (EPISKIN). After overnight incubation at 37° C., 5% CO2, the medium is removed. Then, the tissue models are incubated with the candidate peptide at 10 μg/ml at 37° C. and 5% CO2 for 24 hours. The tissue models are embedded in Tissue Teck OCT compound (Aname™). […]
The expression of p63 is evaluated by immunohistochemistry with a specific primary antibody and a fluorescently labelled secondary antibody. […] At the end of the incubation, slides are washed with PBS and are incubated with Alexa Fluor® 488 Goat anti-rabbit IgG (H+L) secondary antibody (Invitrogen, green fluorescence emission dye) 1 hour at room temperature in a dark humidified chamber. […]
Microscopical observations are performed with a Zeiss fluorescence microscope and photographs of each condition are taken with the associated camera. From each fluorescence image of p63, values of the product of Mean Intensity and Area are quantified and normalized by control (basal condition, treated with SkinEthic Growth Medium). […]

Another data set has as its system Keratin 14. Nature of the data set: Keratins expression profile in HEKa with 1 mM CaCl2, Real Time PCR Arrays (Keratin 14). It counts as cell-based, Human. The settings on record: Keratin 14 mRNA, 48 hours. On the procedure: The candidate compound is assayed for its ability to recover the basal keratinocyte state. The keratinocytes of the four layers of the epidermis present different expression patterns of keratins. Basal keratinocytes strongly express Keratin 14 and when differentiated, Keratin 10 is increased. To elucidate the keratinocyte state (basal or differentiated), the expression profile of keratins is analyzed by Real Time PCR Arrays, using a 96-well panel for use with SYBR® Green (BioRad) to detect mRNA expression levels of two keratin genes (Keratins 10 and 14) plus three housekeeping genes, and five controls, in Human Epidermal Keratinocytes from adult (HEKa) (Cascade Biologics).
HEKa cells are seeded at 6.0×10^5 cells/well in 6-well plates and incubated in culture medium Epilife with defined Growth Supplement (EDGS) (Cascade Biologics), for 24 hours at 37° C. in a water-saturated atmosphere of 95% air and 5% CO2. After 24 hours, the medium is removed and the cells are incubated with the synthetic peptide candidate at several concentrations in culture medium that contains 1 mM CaCl2) (Sigma) to induce differentiation of keratinocytes. Cells are incubated with 1 mM CaCl2) in culture medium and this provides a positive control of differentiation. Cells are incubated with culture medium only and these provide basal conditions. After 48 hours of treatment at 37° C. in a CO2 incubator, the cells are lysed directly in the wells, and RNA is purified following the protocol described on the RNeasy Mini kit (Qiagen) according to the manufacture's protocol. After RNA elution, quantification and analysis of purity of RNA samples are performed with a biophotometer (Eppendorf). […] SYBR Green binds to double-stranded DNA molecules and emits fluorescence which is quantified; the fluorescence intensity is proportional to the amount of the product in the PCR reaction. […] Fold change relative to the expression of the sample genes and reference genes is calculated using normalized expression (ΔΔ(Ct)) method using CFX Manager Software (BioRad).
Background: Real-time PCR tracks product formation cycle by cycle.

For the substance “Ac-QEMRMQ-OH [DD14024, Ac-Gln-Glu-Met-Arg-Met-Gln-OH]”, the “Fold induction respect to basal conditions” value with p63 (1 experiment) came to 1.63 ± 0.16; in the data set with p63 (mean of four experiments) it was 2.11 ± 0.23. In addition, the “Fold induction respect to positive control of differentiation” value in the data set with Keratin 14 (1 mM CaCl2, 0.001 mg/ml) is on record as 1.29 ± 0.15; with Keratin 14 (1 mM CaCl2, 0.005 mg/ml), 1.36 ± 0.15; in the data set on Keratin 14 (1 mM CaCl2, 0.01 mg/ml), 1.30 ± 0.09.
